Consider ten molecules from PubChem BioAssay (NCI).

Values joined by “and” are separate entries in the source; they are usually repeats but may differ in a detail not shown here. Equal entries are not always repeated.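 48-hour exposure; five concentrations; linearly interpolated endpoints. Abbreviation: GI50, concentration required for 50% inhibition of growth. At the TGI there is no net growth.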

Test systems include A549 NSCLC; HCT-15 colon; HS 578T breast; IGROV1 ovarian; NCI-H460 lung; RPMI-8226 leukemia; SK-MEL-5 melanoma; SK-OV-3 ovarian.
Experiment in all cases: DTP human tumour cell line panel, 48 h

The term GI50 denotes the concentration at which growth is held to half of that of the control. By TGI is commonly meant the concentration at which net growth stops. A low value points to greater sensitivity of the cells. `COc1cccc(-c2cc(=O)c3cc(N4CCOCC4)ccc3[nH]2)c1`: the GI50 is 0.225 µM in the experiment with A549 NSCLC; 0.0328 µM in the experiment with HCT-15 colon; 0.145 µM with IGROV1 ovarian; 272 nM with NCI-H460 lung; 135 nM with RPMI-8226 leukemia; 31.9 nM in the experiment with SK-MEL-5 melanoma. Further, the GI50 in the experiment with SK-OV-3 ovarian was 0.0268 µM and 0.044 µM. Also, the TGI with A549 NSCLC was greater than 100 µM; in the experiment on HCT-15 colon, 0.227 µM and 0.575 µM; in the experiment with HS 578T breast, 0.055 µM; in the experiment on IGROV1 ovarian, greater than 100 µM; in the experiment on NCI-H460 lung it was greater than 100 µM; in the experiment with SK-OV-3 ovarian it was 36.8 µM.
With `O=C(c1ccccc1Cl)n1oc2ccccc2c1=O`, the TGI in the experiment with A549 NSCLC was greater than 100 µM; in the experiment with HCT-15 colon, greater than 100 µM; in the experiment with HS 578T breast it was greater than 100 µM; in the experiment on IGROV1 ovarian, greater than 100 µM; with NCI-H460 lung, greater than 100 µM; with RPMI-8226 leukemia it was 68.8 µM. The total growth inhibition concentration (TGI) in the experiment on SK-MEL-5 melanoma and in the experiment with SK-OV-3 ovarian was greater than 100 µM each time.
Turning to `COc1cc(/C=C/c2cc(/C=C/c3ccc(O)c(OC)c3)n(C(=O)Nc3ccccc3Cl)n2)ccc1O`, the GI50 in the experiment with A549 NSCLC was 0.336 µM; in the experiment with HCT-15 colon it was 0.332 µM; in the experiment with HS 578T breast, 114 nM; in the experiment on IGROV1 ovarian, 0.485 µM; in the experiment on NCI-H460 lung, 331 nM; with RPMI-8226 leukemia it was 321 nM. The GI50 with SK-MEL-5 melanoma was 299 nM; in the experiment on SK-OV-3 ovarian, 0.401 µM. Besides, the concentration for total growth inhibition (TGI) turned out to be 2.08 µM in the experiment on A549 NSCLC; 4.15 µM in the experiment on HCT-15 colon; 0.89 µM with HS 578T breast; 2.39 µM with IGROV1 ovarian; 1.25 µM in the experiment on NCI-H460 lung; 1.55 µM with RPMI-8226 leukemia. Moreover, the TGI in the experiment on SK-MEL-5 melanoma amounted to 1.22 µM; in the experiment on SK-OV-3 ovarian, 2.35 µM.
With `CCOC(=O)C1=C(C)NC(=O)NC1CN1C(=O)c2ccccc2C1=O` (stereo unspecified), the GI50 is greater than 100 µM in the experiment on A549 NSCLC; greater than 100 µM in the experiment on HCT-15 colon; greater than 100000 nM in the experiment with HS 578T breast; greater than 100 µM in the experiment on IGROV1 ovarian; greater than 100000 nM in the experiment on NCI-H460 lung; greater than 100000 nM with RPMI-8226 leukemia. In addition, the GI50 was greater than 100000 nM with SK-MEL-5 melanoma and greater than 100 µM in the experiment with SK-OV-3 ovarian. Further, the TGI in the experiment with A549 NSCLC, with HCT-15 colon, in the experiment on HS 578T breast, in the experiment with IGROV1 ovarian, in the experiment on NCI-H460 lung and with RPMI-8226 leukemia was greater than 100 µM throughout. Further, the TGI in the experiment with SK-MEL-5 melanoma and with SK-OV-3 ovarian was greater than 100 µM each time.
`N#Cc1c(NC(=O)c2ccc(F)cc2)sc2c1CCCC2`: the GI50 in the experiment with A549 NSCLC is greater than 25 µM; in the experiment with HCT-15 colon, greater than 25 µM; in the experiment with HS 578T breast it was greater than 25000 nM; with IGROV1 ovarian it was greater than 25 µM; in the experiment on NCI-H460 lung, greater than 25000 nM; in the experiment with RPMI-8226 leukemia, greater than 25000 nM. The values for the GI50 in the experiment with SK-MEL-5 melanoma and with SK-OV-3 ovarian were greater than 25000 nM and greater than 25 µM, respectively. In addition, the TGI in the experiment with A549 NSCLC, with HCT-15 colon, in the experiment with HS 578T breast, in the experiment on IGROV1 ovarian, with NCI-H460 lung and in the experiment on RPMI-8226 leukemia was greater than 25 µM in each case. In addition, the TGI in the experiment on SK-MEL-5 melanoma and in the experiment with SK-OV-3 ovarian was greater than 25 µM throughout.
In the case of `CCCCNS(=O)(=O)c1n[nH]c(=O)[nH]c1=O`, the TGI in the experiment with A549 NSCLC, in the experiment on HCT-15 colon, with HS 578T breast, in the experiment with IGROV1 ovarian, in the experiment on NCI-H460 lung and in the experiment with RPMI-8226 leukemia was greater than 100 µM in each case. Further, the TGI in the experiment with SK-MEL-5 melanoma and with SK-OV-3 ovarian was greater than 100 µM throughout.
For the molecule `COc1ccc(C(=NN=C(N)N)c2ccc(OC)cc2)cc1`, the GI50 is 4.91 µM in the experiment with A549 NSCLC; 4.73 µM in the experiment with HCT-15 colon; 1750 nM with HS 578T breast; 2.97 µM in the experiment with IGROV1 ovarian; 3040 nM with NCI-H460 lung; 5460 nM with RPMI-8226 leukemia. Besides, the GI50 was 2250 nM in the experiment with SK-MEL-5 melanoma and 2.78 µM in the experiment on SK-OV-3 ovarian. Besides, the TGI is 18.5 µM in the experiment with A549 NSCLC; 19.9 µM in the experiment on HCT-15 colon; 6.93 µM with HS 578T breast; 13.7 µM with IGROV1 ovarian; 11 µM in the experiment with NCI-H460 lung; 21.8 µM with RPMI-8226 leukemia. In addition, the TGI was 5.76 µM in the experiment on SK-MEL-5 melanoma and 10.6 µM in the experiment with SK-OV-3 ovarian.
As to `COC(=O)[C@]12CC[C@@H](C)[C@H](C)[C@@H]1C1=CC[C@@H]3[C@@]4(C)C[C@@H](OC(=O)/C=C/c5ccccc5)[C@H](O)[C@@](C)(CO)[C@@H]4[C@H](O)C[C@@]3(C)[C@]1(C)CC2`, the GI50 in the experiment with A549 NSCLC was 3.11 µM; in the experiment on HCT-15 colon it was 1.93 µM; in the experiment with HS 578T breast, 1880 nM; in the experiment on IGROV1 ovarian, 3.61 µM; with NCI-H460 lung it was 2120 nM; in the experiment with RPMI-8226 leukemia it was 2540 nM. Further, the GI50 in the experiment with SK-MEL-5 melanoma was 1930 nM; in the experiment on SK-OV-3 ovarian, 3.91 µM. Besides, the TGI in the experiment on A549 NSCLC was found to be 12 µM; with HCT-15 colon it was 4.02 µM; with HS 578T breast, 4.71 µM; with IGROV1 ovarian, 14 µM; in the experiment with NCI-H460 lung it was 4.7 µM; with RPMI-8226 leukemia, 7.86 µM. The TGI in the experiment with SK-MEL-5 melanoma was found to be 4.23 µM; in the experiment with SK-OV-3 ovarian it was 14.3 µM.
Turning to `Cc1ccc2cccc(OC(=O)Nc3cccc(C(F)(F)F)c3)c2n1`, the GI50 was 3.44 µM with A549 NSCLC; 3.14 µM with HCT-15 colon; 3530 nM in the experiment with HS 578T breast; 4.29 µM with IGROV1 ovarian; 2840 nM in the experiment with NCI-H460 lung; 2520 nM in the experiment with RPMI-8226 leukemia. Further, the GI50 is 7410 nM with SK-MEL-5 melanoma and 4.37 µM with SK-OV-3 ovarian. Moreover, the TGI in the experiment with A549 NSCLC was 13.4 µM; in the experiment with HCT-15 colon it was 11.3 µM; in the experiment with HS 578T breast, 18.9 µM; in the experiment with IGROV1 ovarian, 17.4 µM; in the experiment with NCI-H460 lung it was 7.8 µM; in the experiment on RPMI-8226 leukemia, 7.21 µM. Further, the TGI stood at 20.1 µM in the experiment on SK-MEL-5 melanoma and 16.2 µM in the experiment with SK-OV-3 ovarian.
For the molecule `C=C1C(=O)O[C@H]2[C@H](OC(C)=O)[C@@H](C)CCCC3(C)OC3CCC3(CO3)[C@H](O)C[C@@H]12` (stereo partly specified), the GI50 was 19.8 µM with A549 NSCLC; 10.2 µM with HCT-15 colon; 11800 nM in the experiment on HS 578T breast; 13.9 µM with IGROV1 ovarian; 12900 nM with NCI-H460 lung; 1380 nM with RPMI-8226 leukemia. In addition, the figures for the GI50 in the experiment on SK-MEL-5 melanoma and with SK-OV-3 ovarian were 11900 nM and 21.2 µM, respectively. Also, the total growth inhibition concentration (TGI) is 74.8 µM with A549 NSCLC; 21.8 µM in the experiment on HCT-15 colon; 43.4 µM with HS 578T breast; 38.7 µM in the experiment on IGROV1 ovarian; 36 µM in the experiment with NCI-H460 lung; 4.08 µM in the experiment on RPMI-8226 leukemia. Also, the TGI turned out to be 24.9 µM in the experiment on SK-MEL-5 melanoma and 62 µM in the experiment on SK-OV-3 ovarian.
